Measured values as given in PubChem BioAssay (NCI).
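Cells were grown in 96-well plates and exposed to each compound for 48 hours at five concentrations; endpoints were interpolated linearly between bracketing concentrations, or set to the highest concentration if not reached. GI50 marks 50% less growth. The concentration for full growth arrest is given as TGI.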

Legend:
Experiment in all cases: NCI-60 cell line screen, 48 h
[1] = test system: ACHN renal
[2] = test system: NCI-H23 lung
[3] = test system: NCI-H460 lung
[4] = test system: NCI-H522 lung
[5] = test system: A549 NSCLC
[6] = test system: HCT-116 colon
[7] = test system: SK-MEL-2 melanoma
[8] = test system: NCI-H226 lung
[9] = test system: MDA-MB-435
[10] = test system: DU-145 prostate
[11] = test system: MDA-N
[12] = test system: MCF7 breast
[13] = test system: T-47D breast

Structure (SMILES) | TGI [1] [µM] | TGI [2] [µM] | TGI [3] [µM] | TGI [4] [µM] | TGI [5] [µM] | TGI [6] [µM] | TGI [7] [µM] | TGI [8] [µM] | TGI [9] [µM] | TGI [10] [µM] | TGI [11] [µM] | TGI [12] [µM] | TGI [13] [µM] | GI50 [3] [µM] | GI50 [6] [µM]
C/C(=C(/C)c1cc[n+](C)cc1)c1cc[n+](C)cc1 | > 75 | > 75 | > 75 | > 75 | > 75 | > 75 | > 75 | – | – | – | – | – | – | – | –
O=[N+]([O-])c1cc(Cl)ccc1S(=O)(=O)c1ccc(Cl)cc1[N+](=O)[O-] | 29.7 | 29.2 | 31.5 | 29.9 | 70 | 29.2 | 33 | 25.1 | – | – | – | – | – | – | –
CC[C@H]1C=CCC[C@@]2(C[C@@H]3CC[C@H]4[C@@H](C(=O)OCCCCCCCCCCCCCCCC(=O)N(CCCNC(C)=O)C[C@H](CCNC(C)=O)OC(C)=O)[C@@]5(CCC[C@@H](C)O5)NC(=[N+]34)N2)O1 | 3.3 | 3.19 | 3.25 | 2.63 | 3.42 | 2.92 | 3.31 | 2.94 | 3 | 2.9 | 3.05 | 2.98 | – | – | –
Cc1ccccc1C1CC(=O)CC(c2ccccc2C)C12C(=O)NC(=S)NC2=O (configuration not stated) | 38.6 | > 100 | 41.8 | – | > 100 | 49 | 40.3 | 44.2 | 62.4 | > 100 | > 100 | > 100 | > 100 | – | –
Cc1ccc2nc(-c3ccc(-c4nc5ccc(C)cc5o4)c(O)c3)oc2c1 | > 100 | > 100 | > 100 | – | > 100 | > 100 | > 100 | > 100 | > 100 | > 100 | > 100 | > 100 | > 100 | – | –
Oc1ccc2ccccc2c1NCn1nc(CCCCCCCCc2nn(CNc3c(O)ccc4ccccc34)c(=S)o2)oc1=S | > 100 | > 100 | > 100 | > 100 | > 100 | 79.4 | > 100 | > 100 | > 100 | > 100 | > 100 | > 100 | – | – | –
CC(C)N(C(=O)C12C3(C(=O)C(C)(C)C)C4C5(C#N)C3C1(C(=O)C(C)(C)C)C5C42C(=O)C(C)(C)C)C(C)C (configuration not stated) | > 100 | > 100 | > 100 | > 100 | > 100 | > 100 | > 100 | – | > 100 | > 100 | > 100 | > 100 | > 100 | – | –
COc1cccc(N2C(=O)C3c4[nH]c5ccc(C)cc5c4C4CCC(C)CC4C3C2=O)c1 (configuration not stated) | > 100 | > 100 | > 100 | – | > 100 | > 100 | > 100 | > 100 | > 100 | > 100 | > 100 | > 100 | – | – | –
Cc1ccc(S(=O)(=O)OI(O)CC(F)(F)F)cc1 | > 100 | > 100 | > 100 | > 100 | > 100 | > 100 | > 100 | > 100 | > 100 | > 100 | – | > 100 | > 100 | – | –
O=c1cc(-c2ccc3ccccc3c2)[nH]c2ncccc12 | > 100 | > 100 | > 100 | 46 | > 100 | > 100 | > 100 | > 100 | – | > 100 | – | > 100 | > 100 | 3.79 | 3.83
O=c1[nH]cc(COCC(O)CO)c(=O)[nH]1 (configuration not stated) | > 100 | > 100 | > 100 | > 100 | > 100 | > 100 | > 100 | > 100 | – | – | – | – | – | – | –
COCCNC1CCC(=O)c2[nH]c3ccccc3c21 (configuration not stated) | > 100 | > 100 | > 100 | > 100 | > 100 | > 100 | > 100 | > 100 | > 100 | > 100 | > 100 | > 100 | – | – | –
CC(=O)c1c2c(cc3c1CC1(C3)Cc3cc4c(c(C(C)=O)c3C1)CCCC4)CCCC2 | > 100 | > 100 | – | > 100 | > 100 | > 100 | 83.2 | > 100 | > 100 | – | > 100 | > 100 | > 100 | – | –
CNC(=O)OCc1nc(N=[N+]=[N-])n(C)c1COC(=O)NC | > 100 | > 100 | > 100 | 40.7 | > 100 | > 100 | 80.6 | > 100 | > 100 | > 100 | > 100 | > 100 | – | – | –
O=C(/C=C/c1ccc(O)cc1)c1cc(-c2cc(CCC(=O)c3ccc(O)cc3O)ccc2O)c(O)cc1O | > 50 | > 50 | > 50 | > 50 | > 50 | > 50 | > 50 | – | > 50 | > 50 | > 50 | > 50 | > 50 | – | –
CCOC(=O)C(C)c1nc2cc(C(F)(F)F)ccc2[nH]c1=O (configuration not stated) | > 100 | > 100 | > 100 | – | > 100 | > 100 | > 100 | > 100 | > 100 | > 100 | > 100 | > 100 | 67.7 | – | –
O=c1[nH]c2cc3[nH]c(=O)c(=O)[nH]c3cc2[nH]c1=O | > 100 | > 100 | > 100 | > 100 | > 100 | > 100 | > 100 | > 100 | > 100 | > 100 | – | > 100 | – | – | –
O=C1CC2(CCNCC2)C(=O)N1N1CCCCC1 | > 100 | > 100 | > 100 | > 100 | > 100 | > 100 | > 100 | > 100 | – | > 100 | > 100 | > 100 | > 100 | – | –
CC(C(=O)O)C1Nc2ccccc2NC1=O (configuration not stated) | > 100 | > 100 | > 100 | – | > 100 | > 100 | > 100 | > 100 | > 100 | > 100 | > 100 | > 100 | > 100 | – | –
COc1ccc2cc(/C=N\NC(=O)Nc3ccc([N+](=O)[O-])cc3)ccc2c1 | 19.8 | 16.6 | 18.3 | 26.4 | 18.5 | 16.3 | 20.5 | – | 25.1 | 14 | 18.5 | > 31.6 | 19.5 | – | –

Structure (SMILES) | TGI [1] [µM] | TGI [2] [µM] | TGI [3] [µM] | TGI [4] [µM] | TGI [5] [µM] | TGI [6] [µM] | TGI [7] [µM] | TGI [8] [µM] | TGI [9] [µM] | TGI [10] [µM] | TGI [11] [µM] | TGI [12] [µM] | TGI [13] [µM] | GI50 [3] [µM] | GI50 [6] [µM]
COC(=O)C1Cc2c([nH]c3ccccc23)-c2[nH]c3ccccc3c2CC(NC(C)=O)C(=O)NCC(=O)NCC(=O)N1 (configuration not stated) | > 100 | > 100 | > 100 | > 100 | > 100 | > 100 | > 100 | > 100 | > 100 | > 100 | > 100 | – | > 100 | – | –
C=CCN(N=O)C(=O)N(CCCCC(NC(C)=O)C(=O)NCc1ccccc1)Cc1ccccc1 (configuration not stated) | > 100 | > 100 | > 100 | 39.9 | > 100 | – | > 100 | 60.7 | – | – | – | – | – | – | –
COc1ccc(-c2cc(=O)c3ccc(F)cc3[nH]2)cc1 | > 100 | > 100 | > 100 | > 100 | > 100 | > 100 | – | > 100 | – | – | – | – | – | – | –
CCN(CC)c1ccc2cc(-c3csc(C)n3)c(=O)oc2c1 | > 100 | – | > 100 | – | > 100 | > 100 | > 100 | > 100 | > 100 | > 100 | > 100 | > 100 | > 100 | – | –
COc1ccc(OC)c([N+](=O)[O-])c1-c1nc2sc(C)c(C)n2c1/C=N/N=C(N)N | > 100 | > 100 | > 100 | > 100 | > 100 | > 100 | 40.5 | > 100 | > 100 | > 100 | – | 79.5 | 61.2 | – | –
O=C1Nc2ccccc2/C1=N/N1C(=O)/C(=C/c2ccccc2S)N=C1c1ccccc1 | > 100 | > 100 | > 100 | > 100 | > 100 | > 100 | > 100 | – | > 100 | > 100 | > 100 | > 100 | 81.8 | – | –
O=C(NN1C(=O)C(Cl)C1c1cccc(Cl)c1)c1ccccc1O (configuration not stated) | > 100 | > 100 | > 100 | > 100 | > 100 | > 100 | > 100 | > 100 | – | – | – | – | – | – | –
CC(C)=CC[C@H]1C[C@@]2(CC=C(C)C)C(=O)/C(=C(/O)c3ccccc3)C(=O)[C@](CC=C(C)C)(C2=O)C1(C)C | 21.8 | 73.9 | 11.5 | 32.5 | 23.7 | 14.5 | 8.24 | 36.2 | 26.2 | – | 20.1 | 21.5 | 35.2 | – | –
C=C(C)CCN(C(=O)OC(C)(C)C)c1cc(C(C)C)co1 | > 100 | > 100 | – | – | > 100 | > 100 | > 100 | > 100 | > 100 | > 100 | > 100 | > 100 | > 100 | – | –
Cc1ccc(S(=O)(=O)NC(=O)NCC(N)=O)cc1 | > 100 | > 100 | > 100 | > 100 | > 100 | > 100 | > 100 | – | – | > 100 | > 100 | > 100 | > 100 | – | –
Oc1ccccc1-c1n[nH]c(-c2ccccc2O)n1 | > 100 | – | > 100 | – | > 100 | > 100 | > 100 | > 100 | > 100 | > 100 | > 100 | > 100 | 78.5 | – | –
Cc1ccc(/C=C2\CCCCCC2=O)cc1 | > 100 | > 100 | > 100 | > 100 | > 100 | > 100 | > 100 | > 100 | > 100 | > 100 | > 100 | – | > 100 | – | –
COc1ccc2oc(=O)c(-c3csc(-c4ccccc4)n3)cc2c1 | > 100 | – | > 100 | – | > 100 | > 100 | > 100 | > 100 | > 100 | > 100 | > 100 | > 100 | > 100 | – | –
Cn1nc(S(N)(=O)=O)s/c1=N/S(=O)(=O)c1ccc(N)cc1 | > 100 | > 100 | > 100 | – | > 100 | – | > 100 | > 100 | – | > 100 | – | – | – | – | –
CC(C)(C)OC(=O)NC(Cc1ccc(OCc2ccccc2)cn1)C(=O)O (configuration not stated) | > 100 | > 100 | > 100 | > 100 | > 100 | > 100 | – | > 100 | > 100 | > 100 | > 100 | > 100 | – | – | –
O=C1COc2cc3c(cc2N1)SCCC(=O)N3 | – | > 100 | – | > 100 | > 100 | > 100 | > 100 | > 100 | – | – | – | – | – | – | –
COC1=CC(=O)c2c(n[nH]c2CCNC(=O)OCc2ccccc2)C1=O | 27.2 | 15.5 | 31.3 | 21.1 | 40.4 | 24.9 | 23.7 | – | 4 | – | 4.61 | 22.2 | 18.3 | – | –
Cc1cc(C)nc(NS(=O)(=O)c2ccc(Nc3nnc(/C=C/c4c(O)ccc5ccccc45)c(=O)n3N)cc2)n1 | 53.8 | 57.7 | – | – | > 100 | 42 | – | – | 57.6 | > 100 | 81.6 | 45.7 | 51.5 | – | –
CC(C)(C)OC(=O)NC(Cc1ccc(OCc2ccccc2)cn1)C(N)=O (configuration not stated) | > 100 | > 100 | > 100 | > 100 | > 100 | > 100 | – | > 100 | > 100 | > 100 | > 100 | > 100 | – | – | –
